In patent US20030017483A1, “Modulation of molecular interaction sites on RNA and other biomolecules” (priority 1998, published 2003):
Values after ≈ are worked out from the molar mass of the structure shown. Like-named read-outs stand apart in the source and are kept apart here.

Tests used:
[1] = test system: luciferase reporter; assay: transcription/translation assay based on expression of a luciferase plasmid; type: biochemical
Description: The compounds are screened for binding affinity using MASS or conventional high-throughput functional screens. The best scoring compounds from docking a 256-member library against the 16S A-site ribosomal RNA structure are shown in the table below. The MASS assay was performed with the 27-mer model RNA sequence of the 16S A-site whose NMR structure has been determined. The transcription/translation assay was based on expression of a luciferase plasmid.

[2] = target: 27-mer RNA containing the A-site of the 16S rRNA; settings: cited from earlier work
[3] = target: 27-mer model RNA sequence of the 16S A-site; assay: MASS assay (mass spectrometry binding affinity); settings: 27-mer model RNA of the 16S A-site
Text: One mass spectrometric method which is particularly useful when combined with the techniques of the foregoing commonly owned inventions provides the determination of specificity and affinity of ligands to RNA targets. MASS (multi target affinity/specificity screening) techniques can provide high throughput screening methods to analyze the specificity and affinity of ligands to molecular interaction sites of nucleic acids, especially RNA. […]
Binding site information can be obtained by comparing the gas phase fragmentation patterns of the free and complexed target while relative binding constants are derived from the relative abundance of complexes using a complex with a known Kd as an internal standard. With knowledge of the specificity and affinity of ligands to the molecular interaction site of a target RNA, the desired lead or ultimate compound for modulation of the RNA can be determined.
The compounds are screened for binding affinity using MASS or conventional high-throughput functional screens. […] The MASS assay was performed with the 27-mer model RNA sequence of the 16S A-site whose NMR structure has been determined. […]

[4] = test system: E. coli; assay: high throughput screening assay for antibacterial activity; type: cell-based; settings: Escherichia coli; crude compounds, against E. coli; read-out: minimum inhibitory concentrations (MIC's)
Text: This activity was verified by manual solution synthesis of analytically pure material as described in Example 6 above, which had identical activity.

[5] = cited from earlier work
[6] = test system: 23S rRNA fragment / L11 protein fragment; assay: L11/thiostrepton SPA assay; type: binding; settings: positive control, RNA under destabilizing conditions
Text: The mode of action of thiostrepton appears to be to stabilize a region of the 23S rRNA and by doing so prevent a structural transition in the L11 protein. Among the many assays that look at RNA/protein interactions, an SPA assay has been designed to look for small molecules that could be effective as thiostrepton ‘like’ agents. This assay uses a radiolabeled small fragment of the 23S rRNA, a biotinylated 75 amino acid fragment of the L11 protein that contains the 23S rRNA binding domain and thiostrepton. The folding conditions of the secondary and tertiary structures of the 23S rRNA fragment have been examined as have the binding conditions of the L11 fragment to the 23S rRNA. The L11-thiostrepton assay has been optimized so that the 23S rRNA fragment is in an unfolded state prior to the addition of compounds. Addition of the L11 fragment to this unfolded RNA results in no detectable binding interaction. The high throughput assay is run by mixing the 23S rRNA fragment, under destabilizing conditions, with compounds of interest, incubating this mixture, and then adding the L11 fragment. Streptavidin-coated SPA beads are added for binding detection. Thiostrepton is used as a positive control.

[7] = test system: luciferase mRNA (control luc+9); assay: wheat germ lysate translation of control luciferase mRNA; type: biochemical; settings: control mRNA without TAR
Text: It is believed that stabilization of mRNA structures near the 5′-cap also could be effected by specific “small” molecules, and that such binding would reduce the translational efficiency of the mRNA. To test this hypothesis, a plasmid was constructed containing the luciferase message behind a 5′-UTR containing a 27-mer RNA construct of the HIV TAR stem-loop bulge whose structure had been determined by NMR.

[8] = test system: TAR RNA interaction with tat peptide; assay: disruption of TAR RNA interaction with tat peptide; type: binding, HIV
[9] = test system: TAR; settings: in words, FIG. 36
[10] = target: luciferase mRNA containing the TAR RNA structure in the 5′-UTR; assay: wheat germ lysate translation of luciferase mRNA containing TAR RNA structure; type: biochemical, HIV; settings: luciferase mRNA with TAR RNA structure in the 5′-UTR, read-out: concentration reducing translation by 50%
Text: It is believed that stabilization of mRNA structures near the 5′-cap also could be effected by specific “small” molecules, and that such binding would reduce the translational efficiency of the mRNA. To test this hypothesis, a plasmid was constructed containing the luciferase message behind a 5′-UTR containing a 27-mer RNA construct of the HIV TAR stem-loop bulge whose structure had been determined by NMR. The resulting mRNA could be expressed and capped in a wheat germ lysate translation system supplemented with T7 polymerase following addition of m^7G to the lysate (see, FIG. 38A). Insertion of a 9-base leader before the TAR structure (HIVluc+9) enhanced the translational efficiency, presumably by allowing the pre-initiation complex to form. The helicase activity associated with the pre-initiation complex can transiently melt out the TAR RNA structure, and the message is translated (see, FIG. 38A).

## NC[C@@H]1O[C@H](O[C@H]2[C@@H](O)[C@H](O[C@@H]3[C@@H](O)[C@H](N)C[C@H](N)[C@H]3O[C@H]3O[C@H](CO)[C@@H](O)[C@H](O)[C@H]3N)O[C@@H]2CO)[C@H](N)[C@@H](O)[C@@H]1O [Paromomycin]
[1]
  Activity: Inhibition of protein synthesis in transcription/translation assay for luciferase reporter: 0.3 µM
[2]; 27-mer RNA containing the A-site of the 16S rRNA, known value, read-out: Kd, binding to the unpaired adenosine residues
  Kd: 200 nM
[2]; standard, known from other experiments or literature, read-out: binding affinity for a test 27-mer RNA
  Kd: ~1000 nM
[3]
  Kd: 500 nM

## O=C(NO)[C@@H](Cc1ccc2ccccc2c1)NS(=O)(=O)c1ccc2ccccc2c1 [Compound 5-n-ii, (2R)-3-(2-naphthyl)-2-((2-naphthylsulfonyl)amino)propanehydroxamic Acid]
[4]
  MIC: 0.7 to 1.5 µM (≈ 0.294 to 0.631 µg/mL)

## O=C(NO)[C@@H](Cc1ccc2ccccc2c1)NS(=O)(=O)c1ccc(Br)cc1 [Compound 5-n-vi, (2R)-2-(((4-bromophenyl)sulfonyl)amino)-3-(2-naphthyl)propanehydroxamic Acid]
[4]
  MIC: 3 to 6 µM (≈ 1.35 to 2.7 µg/mL)

## C=C(NC(=O)C(=C)NC(=O)c1csc(C2=N[C@@H]3c4csc(n4)[C@H]4NC(=O)c5csc(n5)[C@H]([C@](C)(O)[C@@H](C)O)NC(=O)[C@H]5CSC(=N5)/C(=C/C)NC(=O)[C@H]([C@@H](C)O)NC(=O)c5csc(n5)[C@]3(CC2)NC(=O)[C@H](C)NC(=O)C(=C)NC(=O)[C@H](C)NC(=O)[C@H]([C@@H](C)CC)N[C@@H]2C=Cc3c([C@H](C)O)cc(nc3[C@H]2O)C(=O)O[C@@H]4C)n1)C(N)=O [thiostrepton]
[5]
  solubility: very poor solubility
[6]
  L11 fragment binding to 23S rRNA fragment (SPA signal): allows the L11 fragment to bind leading to the generation of a signal

## CNc1ccc(NCCO)c2c1C(=O)c1ccccc1C2=O [ACD 00001199]
[7]
  inhibition of translation of the luciferase mRNA: some inhibition of translation at very high concentrations
[8]
  concentration at which the interaction of TAR RNA with tat peptide is disrupted: 1 µM
[9]
  IC50 values: low
[10]
  IC50: 50000 nM
